Test results as given in patent US20040086901A1, “Database for analyzing gene function and method of analyzing gene function by dspa” (priority 2000, published 2004).
Non-standard residues stand in square brackets, D forms with d. Residues, ends and D or L forms follow the SMILES beside them. Nle = CCCC[C@H](N)C(=O)O

Legend:
Format in all cases: cell-based, mouse
[1] = tested on: NIH3T3 cells overexpressing v-src; assay: MTT cell viability, v-src overexpressing cells vs parental line; conditions: v-src high-expressing cells / parental cell line, 3 to 4 days
Protocol: (§1) With regard to the function-known genes, the genes shown in the left column of Table 2 were used. With regard to the drugs, those shown in Table 1 were dissolved in DMSO to an extent of 100-fold of the maximum concentration for the search of the drugs and used. With regard to the cells, incubated NIH3T3 or ras-NIH3T3 cells were used.
(§2) Full-length cDNA of each function-known genes was incorporated into an expression vector (pRc-CMV, etc.) and transfected into NIH3T3 cells by a common method. Transformed cells were isolated using the resistance to G-418 as an index and the expression of the transfected gene in each cell was investigated by Western blotting method to select a highly expressing line.
(§3) Cell viabilities were measured according to the following procedures.
(§4) 1) From the 2nd to the 11th rows of a 96-well plate were filled with DMEM (50 μl). The 12th row was filled with 100 μl of DMEM.
(§5) 2) The 1st row was filled with 98 μl of DMEM.
(§6) 3) Drugs (2 μl each) were added into the 1st row.
(§7) 4) Continuous double-dilution was conducted from the 1st to the 9th rows. Fifty μl were taken out from the 9th row and discarded. The plate was preserved in a CO2 incubator.
(§8) 5) Cells (each high-expressing cells and the parental cell line) were detached from the medium using a trypsin solution, suspended in 10% CS-DMEM and transferred to a test tube and cell numbers (cell/ml) were counted.
(§9) 6) The cells were diluted to a concentration of 1×10^5 cells/ml, and 50 μl of the cell suspension were added to the 1st to the 11th rows of the plate followed by gently stirring.
(§10) 7) The plate was transferred to the CO2 incubator and incubated for 3 to 4 days.
(§11) 8) MTT (5 mg/ml in PBS) (10 μl) was added to the 1st to the 12th rows of the plate and incubated in the CO2 incubator at 37° C. for 4 hours.
(§12) 9) A reaction stop solution (0.04N HCl in isopropanol) (150 μl) was added followed by mixing well and being allowed to stand at room temperature for about 2 hours.
(§13) 10) Coloration of formazan which was a metabolite of the MTT dye was measured using a microplate reader. The measurement wavelength was 574 nm and the reference wavelength was 655 nm. The 10th and the 11th rows of the plate were 100% controls and the 12th row was a 0% control.
(§14) As an index for the sensitivity of highly gene-expressing cells and the parental cell line to various drugs, each of the IC40 values thereof was specified and ratios of the IC40 values were calculated. FIG. 2 and FIG. 3 are the examples where ratios of IC40 values were calculated from a curve showing the dependency on the concentration of the chemical versus the viability. After that, logarithmic values of ratios of IC40 values were calculated from each gene.

[2] = tested on: NIH3T3 cells overexpressing erbB2; assay: MTT cell viability, erbB2 overexpressing cells vs parental line; conditions: erbB2 high-expressing cells / parental cell line, 3 to 4 days
Protocol: as §1, §2, §3, §4, §5, §6, §7, §8, §9, §10, §11, §12, §13, §14

[3] = tested on: NIH3T3 cells overexpressing Bax; assay: MTT cell viability, Bax overexpressing cells vs parental line; conditions: 3 to 4 days
Protocol: as §1, §2, §3, §4, §5, §6, §7, §8, §9, §10, §11, §12, §13
(§15) As an index for the sensitivity of highly gene-expressing cells and the parental cell line to various drugs, each of the IC40 values thereof was specified and ratios of the IC40 values were calculated. […] After that, logarithmic values of ratios of IC40 values were calculated from each gene.

[4] = tested on: NIH3T3 cells overexpressing TK; assay: MTT cell viability, TK overexpressing cells vs parental line; conditions: TK high-expressing cells / parental cell line, 3 to 4 days
Protocol: as §1, §2, §3, §4, §5, §6, §7, §8, §9, §10, §11, §12, §13, §14

[5] = tested on: NIH3T3 cells overexpressing cAMP-PK-CS; assay: MTT cell viability, cAMP-PK-CS overexpressing cells vs parental line; conditions: cAMP-PK-CS high-expressing cells / parental cell line, 3 to 4 days
Protocol: as §1, §2, §3, §4, §5, §6, §7, §8, §9, §10, §11, §12, §13, §15

[6] = tested on: NIH3T3 cells overexpressing calpastatin; assay: MTT cell viability, calpastatin overexpressing cells vs parental line; conditions: calpastatin high-expressing cells / parental cell line, 3 to 4 days
Protocol: as §1, §2, §3, §4, §5, §6, §7, §8, §9, §10, §11, §12, §13, §14

[7] = tested on: NIH3T3 cells overexpressing CP-antisense; assay: MTT cell viability, CP-antisense cells vs parental line; conditions: 3 to 4 days
Protocol: as §1, §2, §3, §4, §5, §6, §7, §8, §9, §10, §11, §12, §13, §14

[8] = tested on: NIH3T3 cells overexpressing DAN; assay: MTT cell viability, DAN overexpressing cells vs parental line; conditions: DAN high-expressing cells / parental cell line, 3 to 4 days
Protocol: as §1, §2, §3, §4, §5, §6, §7, §8, §9, §10, §11, §12, §13, §14

[9] = tested on: NIH3T3 cells overexpressing cystatin alpha; assay: MTT cell viability, cystatin alpha overexpressing cells vs parental line; conditions: cystatin alpha high-expressing cells / parental cell line, 3 to 4 days
Protocol: as §1, §2, §3, §4, §5, §6, §7, §8, §9, §10, §11, §12, §13, §14

[10] = tested on: NIH3T3 cells overexpressing RhoA; assay: MTT cell viability, RhoA overexpressing cells vs parental line; conditions: RhoA high-expressing cells / parental cell line, 3 to 4 days
Protocol: as §1, §2, §3, §4, §5, §6, §7, §8, §9, §10, §11, §12, §13, §14

[11] = tested on: NIH3T3 cells overexpressing PDGF-R-Del; assay: MTT cell viability, PDGF-R-Del overexpressing cells vs parental line; conditions: PDGF-R-Del high-expressing cells / parental cell line, 3 to 4 days
Protocol: as §1, §2, §3, §4, §5, §6, §7, §8, §9, §10, §11, §12, §13, §14

[12] = tested on: NIH3T3 cells overexpressing STAT1; assay: MTT cell viability, STAT1 overexpressing cells vs parental line; conditions: STAT1 high-expressing cells / parental cell line, 3 to 4 days
Protocol: as §1, §2, §3, §4, §5, §6, §7, §8, §9, §10, §11, §12, §13, §15

[13] = tested on: NIH3T3 cells overexpressing PKCepsilon-KN; assay: MTT cell viability, PKCepsilon-KN overexpressing cells vs parental line; conditions: 3 to 4 days
Protocol: as §1, §2, §3, §4, §5, §6, §7, §8, §9, §10, §11, §12, §13, §15

[14] = tested on: NIH3T3 cells, TPA (PKC downreg); assay: MTT cell viability, TPA (PKC downreg) cells vs parental line; conditions: 3 to 4 days
Protocol: as §1, §2, §3, §4, §5, §6, §7, §8, §9, §10, §11, §12, §13, §14

[15] = tested on: NIH3T3 cells overexpressing JNK-DN; assay: MTT cell viability, JNK-DN overexpressing cells vs parental line; conditions: JNK-DN high-expressing cells / parental cell line, 3 to 4 days
Protocol: as §1, §2, §3, §4, §5, §6, §7, §8, §9, §10, §11, §12, §13, §14

[16] = tested on: NIH3T3 cells overexpressing C/EBPa; assay: MTT cell viability, C/EBPa overexpressing cells vs parental line; conditions: C/EBPa high-expressing cells / parental cell line, 3 to 4 days
Protocol: as §1, §2, §3, §4, §5, §6, §7, §8, §9, §10, §11, §12, §13, §15

[17] = tested on: NIH3T3 cells overexpressing C/EBPb; assay: MTT cell viability, C/EBPb overexpressing cells vs parental line; conditions: C/EBPb high-expressing cells / parental cell line, 3 to 4 days
Protocol: as §1, §2, §3, §4, §5, §6, §7, §8, §9, §10, §11, §12, §13, §15

[18] = tested on: NIH3T3 cells overexpressing p33/ING1; assay: MTT cell viability, p33/ING1 overexpressing cells vs parental line; conditions: p33/ING1 high-expressing cells / parental cell line, 3 to 4 days
Protocol: as §1, §2, §3, §4, §5, §6, §7, §8, §9, §10, §11, §12, §13, §14

[19] = tested on: NIH3T3 cells overexpressing T.Tn; assay: MTT cell viability, T.Tn overexpressing cells vs parental line; conditions: T.Tn high-expressing cells / parental cell line, 3 to 4 days
Protocol: as §1, §2, §3, §4, §5, §6, §7, §8, §9, §10, §11, §12, §13, §15

[20] = Bax (first of two Bax lines) high-expressing cells / parental cell line
[21] = Bax (second of two Bax lines) high-expressing cells / parental cell line
[22] = PKCepsilon-KN (first of two lines) high-expressing cells / parental cell line
[23] = PKCepsilon-KN (second of two lines) high-expressing cells / parental cell line

SMILES | logarithmic value of ratio of IC40 values [1] | logarithmic value of ratio of IC40 values [2] | logarithmic value of ratio of IC40 values [3, 20] | logarithmic value of ratio of IC40 values [3, 21] | logarithmic value of ratio of IC40 values [4] | logarithmic value of ratio of IC40 values [5] | logarithmic value of ratio of IC40 values [6] | logarithmic value of ratio of IC40 values [7] | logarithmic value of ratio of IC40 values [8] | logarithmic value of ratio of IC40 values [9] | logarithmic value of ratio of IC40 values [10] | logarithmic value of ratio of IC40 values [11] | logarithmic value of ratio of IC40 values [12] | logarithmic value of ratio of IC40 values [13, 22] | logarithmic value of ratio of IC40 values [13, 23] | logarithmic value of ratio of IC40 values [14] | logarithmic value of ratio of IC40 values [15] | logarithmic value of ratio of IC40 values [16] | logarithmic value of ratio of IC40 values [17] | logarithmic value of ratio of IC40 values [18] | further results
CNc1ccc2oc(C[C@H]3O[C@@]4(CC[C@H]3C)O[C@H]([C@H](C)C(=O)c3ccc[nH]3)[C@H](C)C[C@H]4C)nc2c1C(=O)O [A23187] | −0.19 | −0.07 | 0.00 | −0.09 | 0.00 | −0.08 | −0.12 | −0.36 | 0.40 | 0.26 | 0.26 | 0.15 | 0.31 | −0.28 | 0.15 | −0.22 | −0.08 | 0.00 | 0.25 | 0.26 | logarithmic value of ratio of IC40 values [19]: −0.22
CCCC[C@@H](C=O)NC(=O)[C@H](CC(C)C)NC(=O)[C@H](CC(C)C)NC(C)=O [ALLN] (Ac-Leu-Leu-[Nle]-aldehyde) | 0.10 | −0.05 | −0.10 | 0.11 | 0.00 | 0.20 | 0.10 | 0.00 | 0.00 | 0.07 | 0.00 | 0.10 | 0.17 | 0.07 | 0.19 | −0.09 | −0.24 | 0.00 | 0.31 | 0.08 | logarithmic value of ratio of IC40 values [19]: 0.48
CN[C@@H]1C[C@H]2O[C@@](C)([C@@H]1OC)n1c3ccccc3c3c4c(c5c6ccccc6n2c5c31)C(=O)NC4 [Staurosporine] | −0.05 | 0.04 | −0.22 | – | 0.46 | −0.12 | 0.04 | −0.15 | 0.48 | 0.30 | 0.15 | 0.28 | – | – | – | −0.12 | 0.14 | – | −0.23 | 0.62 | –
CC(C)(C)C(=O)Oc1ccc(S(=O)(=O)Nc2ccccc2C(=O)NCC(=O)O)cc1 [compound 5046] | 0.51 | 0.80 | −0.07 | – | −0.24 | – | −0.1 | −0.06 | 0.26 | – | 0.11 | −0.07 | 0.05 | −0.21 | – | −0.10 | −0.09 | – | 0.17 | −0.25 | –
